From US9233983B2, “Substituted hetero-bicyclic compounds, compositions and medicinal applications thereof” (ADVINUS THERAPEUTICS LIMITED, priority 2012, dated 2016)
Like-named read-outs stand apart in the source and are kept apart here.

Experiments:
[1] = tested on: mouse splenocytes; test: Inhibition of B Cell Activation as Measured by CD69 Expression in Mouse Splenocytes; type: cell-based; settings: Splenocyte
Method: Inhibition of B Cell Activation as Measured by CD69 Expression in Mouse Splenocytes:
To test the effect of BTK inhibitors in suppressing B-cell receptor (BCR) mediated activation of B cells, we developed a flow cytometry based assay to analyze CD69 expression in B cell population among total splenocyte from the mouse. […] Finally, cell were cultured in RPMI medium with 10% FBS.
Test compounds were diluted half log starting from 2 mM in 100% DMSO (200×). 1×10^5 splenocytes were incubated with 1 uL of diluted test compounds in 200 uL culture medium in a U-bottom 96 well plate (Greiner) at 37° C. with 5% CO2 for 30 mins. Control wells received 1 uL of 100% DMSO without any compound. The cells were stimulated with 3 ug/mL goat anti-mouse IgM (Sigma, cat#M8644) and incubated for 18-20 hrs. […] Then the cells were washed 3 times with PBS with 1% FBS and analyzed by Guava Easycyte Mini flow cytometer system (Millipore). Flow cytometry data were analyzed using Weasel software (WEHI, Melbourne). First B cells were gated using CD19 markers. Then expression of CD69 was analyzed as percentage of CD69+ve cells within CD19. Percent activity for each data point was calculated using following formula: […]
Percentage activity was fit using sigmoid dose response with variable slope logistic equation in Graph-pad Prism 5 software to determine inhibition constant 50 (IC50).

[2] = biological target: human Bruton's Tyrosine Kinase (Btk) (Homo sapiens (Human), UniProt Q06187); test: Recombinant Human Bruton's Tyrosine Kinase (Btk) Inhibition Assay (HTRF KinEASE-TK); type: biochemical; settings: read-out: hBTK IC50
[3] = C57/BL6 splenocytes, 3 ug/mL goat anti-mouse IgM, 18-20 hrs, CD69+ve cells within CD19, read-out: Mouse spleenocyte IC50
[4] = 20 ng/ml rhBtk, 77 μM ATP (KM), 1 μM TK-Biotin substrate, 90 min

Chain of human Bruton's Tyrosine Kinase (Btk) (Q06187 whole entry): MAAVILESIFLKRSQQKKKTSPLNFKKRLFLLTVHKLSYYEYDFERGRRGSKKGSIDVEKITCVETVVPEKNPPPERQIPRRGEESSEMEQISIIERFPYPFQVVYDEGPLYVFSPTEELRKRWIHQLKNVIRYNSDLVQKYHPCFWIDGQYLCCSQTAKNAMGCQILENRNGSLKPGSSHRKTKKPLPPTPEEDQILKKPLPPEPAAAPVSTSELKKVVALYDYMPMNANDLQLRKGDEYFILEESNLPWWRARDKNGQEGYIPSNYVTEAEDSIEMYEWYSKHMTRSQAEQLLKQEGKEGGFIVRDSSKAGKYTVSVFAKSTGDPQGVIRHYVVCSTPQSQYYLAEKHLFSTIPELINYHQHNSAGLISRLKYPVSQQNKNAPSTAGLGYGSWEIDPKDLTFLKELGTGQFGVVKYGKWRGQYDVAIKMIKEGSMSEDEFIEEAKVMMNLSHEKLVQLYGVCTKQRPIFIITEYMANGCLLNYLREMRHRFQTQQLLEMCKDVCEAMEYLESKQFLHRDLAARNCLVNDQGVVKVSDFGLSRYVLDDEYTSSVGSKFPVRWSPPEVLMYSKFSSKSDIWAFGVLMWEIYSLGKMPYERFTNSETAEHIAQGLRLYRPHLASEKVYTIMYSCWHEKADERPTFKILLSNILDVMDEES

Structure (SMILES)	IC50 [1, 3]	IC50 [2, 4]	IC50 ([1]; Mus musculus, read-out: Mouse spleenocyte IC50 (nM))	IC50 [2]
Cc1c(-c2ncnc3[nH]c(-c4ccc(CN5CCNCC5)cc4)cc23)cccc1N1CCOc2cc(C3CC3)ccc2C1=O [Example A-1, 8-cyclopropyl-4-[2-methyl-3-[6-[4-(piperazin-1-ylmethyl)phenyl]-7H-pyrrolo[2,3-d]pyrimidin-4-yl]phenyl]-2,3-dihydro-1,4-benzoxazepin-5-one]	99 nM	7 nM	–	–
Cc1c(-c2ncnc3[nH]c(-c4ccc(CN5CCNCC5)cc4)cc23)cccc1N1CCc2cc(C3CC3)ccc2C1=O [Example A-2, 6-cyclopropyl-2-[2-methyl-3-[6-[4-(piperazin-1-ylmethyl)phenyl]-7H-pyrrolo[2,3-d]pyrimidin-4-yl]phenyl]-3,4-dihydroisoquinolin-1-one]	165 nM	7 nM	–	–
CN1CCN(Cc2ccc(-c3cc4c(-c5cccc(N6CCOc7cc(C8CC8)ccc7C6=O)c5CO)ncnc4[nH]3)cc2)CC1 [Example B-1, 8-cyclopropyl-4-[2-(hydroxymethyl)-3-[6-[4-[(4-methylpiperazin-1-yl)methyl]phenyl]-7H-pyrrolo[2,3-d]pyrimidin-4-yl]phenyl]-2,3-dihydro-1,4-benzoxazepin-5-one]	40 nM	6 nM	–	–
Cc1c(-c2ncnc3[nH]c(-c4ccc(CN5CCN(C)CC5)cc4)cc23)cccc1N1CCOc2cc(C3CC3)ccc2C1=O [Example B-2]	200 nM	31 nM	–	–
O=C1c2ccc(C3CC3)cc2OCCN1c1cccc(-c2ncnc3[nH]c(-c4ccc(CN5CCOCC5)cc4)cc23)c1CO [Example B-5, 8-cyclopropyl-4-[2-(hydroxymethyl)-3-[6-[4-(morpholinomethyl)phenyl]-7H-pyrrolo[2,3-d]pyrimidin-4-yl]phenyl]-2,3-dihydro-l,4-benzoxazepin-5-one]	60 nM	8 nM	–	–
CC1(O)CCN(Cc2ccc(-c3cc4c(-c5cccc(N6CCOc7cc(C8CC8)ccc7C6=O)c5CO)ncnc4[nH]3)cc2)CC1 [Example B-6, 8-cyclopropyl-4-[2-(hydroxymethyl)-3-[6-[4-[(4-hydroxy-4-methyl-1-piperidyl)methyl]phenyl]-7H-pyrrolo[2,3-d]pyrimidin-4-yl]phenyl]-2,3-dihydro-1,4-benzoxazepin-5-one]	–	–	81 nM	7 nM
CCN1CCN(Cc2ccc(-c3cc4c(-c5cccc(N6CCOc7cc(C8CC8)ccc7C6=O)c5CO)ncnc4[nH]3)cc2)CC1 [Example B-7, 8-cyclopropyl-4-[3-[6-[4-[(4-ethylpiperazin-1-yl)methyl]phenyl]-7H-pyrrolo[2,3-d]pyrimidin-4-yl]-2-(hydroxymethyl)phenyl]-2,3-dihydro-1,4-benzoxazepin-5-one]	52 nM	6 nM	–	–
CN1CCN(Cc2ccc(-c3cc4c(-c5cccc(-n6ncc7cc(C8CC8)ccc7c6=O)c5CO)ncnc4[nH]3)cc2)CC1 [Example B-10, 6-cyclopropyl-2-[2-(hydroxymethyl)-3-[6-[4-[(4-methylpiperazin-1-yl)methyl]phenyl]-7H-pyrrolo[2,3-d]pyrimidin-4-yl]phenyl]phthalazin-1-one]	20 nM	2 nM	–	–
CN1CCN(Cc2ccc(-c3cc4c(-c5cccc(N6CCOc7cc(C8CC8)ccc7C6=O)c5CO)ccnc4[nH]3)cc2)CC1 [Example B-13, 8-cyclopropyl-4-[2-(hydroxymethyl)-3-[2-[4-[(4-methylpiperazin-1-yl)methyl]phenyl]-1H-pyrrolo[2,3-b]pyridin-4-yl]phenyl]-2,3-dihydro-1,4-benzoxazepin-5-one]	9 nM	3 nM	–	–
N#CC1CCN(Cc2ccc(-c3cc4c(-c5cccc(N6CCOc7cc(C8CC8)ccc7C6=O)c5CO)ncnc4[nH]3)cc2)CC1 [Example B-14, 1-[[4-[4-[3-(8-cyclopropyl-5-oxo-2,3-dihydro-1,4-benzoxazepin-4-yl)-2-(hydroxymethyl)phenyl]-7H-pyrrolo[2,3-d]pyrimidin-6-yl]phenyl]methyl]piperidine-4-carbonitrile]	96 nM	7 nM	–	–
CCN1CCN(Cc2ccc(-c3cc4c(-c5cccc(N6CCOc7cc(C8CC8)ccc7C6=O)c5CO)ccnc4[nH]3)cc2)CC1 [Example B-16, 8-cyclopropyl-4-[3-[2-[4-[(4-ethylpiperazin-1-yl)methyl]phenyl]-1H-pyrrolo[2,3-b]pyridin-4-yl]-2-(hydroxymethyl)phenyl]-2,3-dihydro-1,4-benzoxazepin-5-one]	17 nM	4 nM	–	–
CC1(O)CN(Cc2ccc(-c3cc4c(-c5cccc(N6CCOc7cc(C8CC8)ccc7C6=O)c5CO)ccnc4[nH]3)cc2)C1 [Example B-17]	74 nM	6 nM	–	–
CN1CCN(Cc2ccc(-c3cc4c(-c5cccc(N6CCOc7cc(C8CC8)ccc7C6=O)c5CO)ccnc4[nH]3)cn2)CC1 [Example B-20, 8-cyclopropyl-4-[2-(hydroxymethyl)-3-[2-[6-[(4-methylpiperazin-1-yl)methyl]-3-pyridyl]-1H-pyrrolo[2,3-b]pyridin-4-yl]phenyl]-2,3-dihydro-1,4-benzoxazepin-5-one]	67 nM	7 nM	–	–
Cc1c(-c2ncnc3[nH]c(-c4ccc(CN5CCC(O)CC5)cc4)cc23)cccc1N1CCc2cc(C3CC3)ccc2C1=O [Example B-22, 6-cyclopropyl-2-[3-[6-[4-[(4-hydroxy-1-piperidyl)methyl]phenyl]-7H-pyrrolo[2,3-d]pyrimidin-4-yl]-2-methyl-phenyl]-3,4-dihydroisoquinolin-1-one]	137 nM	32.5 nM	–	–
CN1CCN(c2ccc(-c3cc4c(-c5cccc(-n6ccc7cc(C8CC8)ccc7c6=O)c5CO)ncnc4[nH]3)cc2)CC1 [Example C-1, 6-cyclopropyl-2-[2-(hydroxymethyl)-3-[6-[4-(4-methylpiperazin-1-yl)phenyl]-7H-pyrrolo[2,3-d]pyrimidin-4-yl]phenyl]isoquinolin-1-one]	9 nM	5 nM	–	–
CN1CCN(c2ccc(-c3cc4c(-c5cccc(N6CCOc7cc(C8CC8)ccc7C6=O)c5CO)ncnc4[nH]3)cc2)CC1 [Example C-2, 8-cyclopropyl-4-[2-(hydroxymethyl)-3-[6-[4-(4-methylpiperazin-1-yl)phenyl]-7H-pyrrolo[2,3-d]pyrimidin-4-yl]phenyl]-2,3-dihydro-1,4-benzoxazepin-5-one]	36 nM	12 nM	–	–
CCN1CC(n2cc(-c3cc4c(-c5cccc(N6CCOc7cc(C8CC8)ccc7C6=O)c5CO)ccnc4[nH]3)cn2)C1 [Example D-10, 8-cyclopropyl-4-[3-[2-[1-(1-ethylazetidin-3-yl)pyrazol-4-yl]-1H-pyrrolo[2,3-b]pyridin-4-yl]-2-(hydroxymethyl)phenyl]-2,3-dihydro-1,4-benzoxazepin-5-one]	76 nM	–	–	–
O=C(N1CC=C(c2cc3c(-c4cccc(N5CCOc6cc(C7CC7)cc(F)c6C5=O)c4CO)ccnc3[nH]2)CC1)N1CCC1 [Example P-13, 4-[3-[2-[1-(azetidine-1-carbonyl)-3,6-dihydro-2H-pyridin-4-yl]-1H-pyrrolo[2,3-b]pyridin-4-yl]-2-(hydroxymethyl)phenyl]-8-cyclopropyl-6-fluoro-2,3-dihydro-1,4-benzoxazepin-5-one]	–	1 nM	–	–
O=C1c2c(F)cc(C3CC3)cc2OCCN1c1cc(F)cc(-c2ccnc3[nH]c(C4=CCN(C5COC5)CC4)cc23)c1CO [Example P-16, 8-cyclopropyl-6-fluoro-4-[5-fluoro-2-(hydroxymethyl)-3-[2-[1-(oxetan-3-yl)-3,6-dihydro-2H-pyridin-4-yl]-1H-pyrrolo[2,3-b]pyridin-4-yl]phenyl]-2,3-dihydro-1,4-benzoxazepin-5-one]	9 nM	–	–	–
CS(=O)(=O)N1CC=C(c2cc3c(-c4ccnc(N5CCOc6cc(C7CC7)cc(F)c6C5=O)c4CO)ccnc3[nH]2)CC1 [Example P-25, 8-cyclopropyl-6-fluoro-4-[3-(hydroxymethyl)-4-[2-(1-methylsulfonyl-3,6-dihydro-2H-pyridin-4-yl)-1H-pyrrolo[2,3-b]pyridin-4-yl]-2-pyridyl]-2,3-dihydro-1,4-benzoxazepin-5-one]	–	618 nM	–	–
O=C1c2c(F)cc(C3CC3)cc2OCCN1c1cccc(-c2ccnc3[nH]c(-c4ccc(OCCN5CCOCC5)cn4)cc23)c1CO [Example Q-1, 8-cyclopropyl-6-fluoro-4-[2-(hydroxymethyl)-3-[2-[5-(2-morpholinoethoxy)-2-pyridyl]-1H-pyrrolo[2,3-b]pyridin-4-yl]phenyl]-2,3-dihydro-1,4-benzoxazepin-5-one]	–	2.9 nM	–	–
O=C1c2c(F)cc(C3CC3)cc2OCCN1c1cccc(-c2ccnc3[nH]c(-c4ccc(OCCN5CCC5)cn4)cc23)c1CO [Example Q-2, 4-[3-[2-[5-[2-(azetidin-1-yl)ethoxy]-2-pyridyl]-1H-pyrrolo[2,3-b]pyridin-4-yl]-2-(hydroxymethyl)phenyl]-8-cyclopropyl-6-fluoro-2,3-dihydro-1,4-benzoxazepin-5-one]	–	3.1 nM	–	–
CN1CCN(c2ccc(-c3cc4c(-c5cccc(N6CCOc7cc(C8CC8)ccc7C6=O)c5CO)ccnc4[nH]3)nc2)CC1 [Example S-3, 8-cyclopropyl-4-[2-(hydroxymethyl)-3-[2-[5-(4-methylpiperazin-1-yl)-2-pyridyl]-1H-pyrrolo[2,3-b]pyridin-4-yl]phenyl]-2,3-dihydro-1,4-benzoxazepin-5-one]	–	3 nM	–	–
